The test system of this assay is dopaminergic neurons. The assay can be described thus: MPTP model of Parkinson's Disease in mice (MPTP Neurodegenerative Model). It counts as in vivo. The following applies: recovery of TH-stained dopaminergic neurons in striatum; male CD1 mice, MPTP 30 mg/kg i.p. 5 days; test compound 4 mg/kg s.c. concurrent with MPTP plus 5 further days; sacrificed at 18 days. On the procedure: MPTP lesioning of dopaminergic neurons in mice is used as an animal model of Parkinson's Disease. Four week old male CD1 white mice are dosed i.p. with 30 mg/kg of MPTP for 5 days. Test compounds (4 mg/kg), or vehicle, are administered s.c. along with the MPTP for 5 days, as well as for an additional 5 days following cessation of MPTP treatment. At 18 days following MPTP treatment, the animals are sacrificed and the striata dissected and perfusion-fixed. Immunostaining is performed on saggital and coronal brain sections using anti-tyrosine hydroxylase […] to quantitate survival and recovery of dopaminergic neurons. In animals treated with MPTP and vehicle, a substantial loss of functional dopaminergic terminals is observed as compared to non-lesioned animals. Lesioned animals receiving test compounds show a significant recovery of TH-stained dopaminergic neurons. This model presents quantitation for the recovery of TH-positive dopaminergic neurons in the striatum of animals receiving the compounds of the present invention. […]
Percent striatal innervation density was quantitated is in brain sections with an anti-tyrosine hydroxylase immunoglobulin, which is indicative of functional dopaminergic neurons. […]

Turning to `O=C(O)[C@@H]1CCCN1S(=O)(=O)Cc1ccccc1` [Compound A, (2S)-N-(benzylsulfonyl)-2-pyrrolidinecarboxylic Acid], the “% Recovery” value stood at 24.4%.

Values taken from patent publication US7078424B2, “N-linked sulfonamides of N-heterocyclic carboxylic acids or carboxylic acid isosteres” (GPI NIL Holdings, Inc., priority 1998, dated 2006).
